Experimental data from publication PMC9946977, “Identification of linderalactone as a natural inhibitor of SHP2 to ameliorate CCl4-induced liver fibrosis” (Frontiers in Pharmacology, 2023).

Assays:
[1] = tested on: mouse liver; assay: LIN alone in mice (toxicity); assay type: in vivo, C57BL/6 mice; details: LIN alone 40 mg/kg i.g. once per day, 4 weeks
Method: C57BL/6 mice (20 ± 2 g) were obtained from Hangzhou Medical College Experimental Animal Center (Hangzhou, China). The animals were maintained under controlled temperature (22°C ± 1°C), humidity (50%), and light (12 h light/12 h dark). The animals were fed a standard laboratory diet and provided with free access to tap water. All animals received humane care according to institutional animal care guidelines approved by the Experimental Animal Ethical Committee of Hangzhou Medical College. […] After treatment, the mice were sacrificed, and plasma and liver tissues were collected and further analysed.
Serum was collected from blood samples after centrifugation at 860 × g for 15 min. Serum ALT (Nanjing Jiancheng Bioengineering Institute, C010-2-1) and AST (Nanjing Jiancheng Bioengineering Institute, C009-2-1) activities were measured using kits, according to the manufacturer’s instructions. Liver hydroxyproline content was determined using the alkaline hydrolysis method, as described in the kits. Serum levels of laminin (LN) were measured using ELISA kits, according to the manufacturer’s instructions (Shanghai YANJIN Biological Technology Co., LTD, F12019). […]

[2] = molecular target: T1, SHP2-PTP K366A/Q510A double mutant (Homo sapiens, UniProt Q06124, K366A/Q510A); assay: BLI assay, SHP2-PTP K366A/Q510A double mutant; assay type: binding
T1 construct: Human SHP2 PTP domain (A237–I529) expression constructs; His-tag; made in house; host or cells: E. coli BL21 (DE3)
T1 sequence (Q06124 237-529 K366A/Q510A): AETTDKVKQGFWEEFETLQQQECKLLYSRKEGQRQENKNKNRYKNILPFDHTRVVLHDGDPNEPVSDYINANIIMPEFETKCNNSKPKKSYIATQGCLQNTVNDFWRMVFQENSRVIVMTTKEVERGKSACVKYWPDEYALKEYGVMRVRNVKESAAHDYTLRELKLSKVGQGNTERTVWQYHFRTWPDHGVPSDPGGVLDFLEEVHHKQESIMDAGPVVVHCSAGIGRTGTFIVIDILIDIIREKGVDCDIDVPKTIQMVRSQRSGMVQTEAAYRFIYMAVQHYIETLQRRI
Method: Human SHP2 PTP domain (A237–I529) expression constructs were engineered by cloning PTPN11 (NP_002825.3) into the pET30 plasmid with a His-tag to support further protein purification. The K366A/Q510A double mutation was introduced into the wild-type template using a site-directed mutagenesis kit (E0554S; New England Biolabs). The expression constructs were sequenced and transformed into BL21 (DE3)-competent cells. E. coli cells were grown at 37°C in an LB culture medium in the presence of […] kanamycin until the OD600 reached 1.0. The medium was then cooled to 18°C and 1 mM isopropyl ß-D-1-thiogalactopyranoside (IPTG) was added to induce protein expression overnight.
Cell pellets were collected and suspended in a buffer of 50 mM Tris-HCl (Ph = 8.5), 150 mM NaCl supplemented with 10% glycerol, and lysed by homogeniser (JN-BIO, China). […]
The BLI assay was performed using a FortéBio Octet 96 system. […] After equilibrium, the kinetics of the LIN and SHP2-PTP association were analysed by soaking the SSA sensors in a compound solution with various LIN concentrations for 300 s (6.25, 12.5, 25, 50, 100, and 200 μM), followed by 300 s of dissociation in the same HEPES buffer. The equilibrium constant (KD) values were assessed using the FortéBio data analysis software by fitting the kinetic data using a 1:1 binding model.

[3] = tested on: CCl4-induced liver fibrosis; assay: CCl4-induced liver fibrosis mouse model: liver injury and fibrosis; assay type: in vivo, C57BL/6 mice; details: CCl4 mice
Method: C57BL/6 mice (20 ± 2 g) were obtained from Hangzhou Medical College Experimental Animal Center (Hangzhou, China). The animals were maintained under controlled temperature (22°C ± 1°C), humidity (50%), and light (12 h light/12 h dark). The animals were fed a standard laboratory diet and provided with free access to tap water. All animals received humane care according to institutional animal care guidelines approved by the Experimental Animal Ethical Committee of Hangzhou Medical College. Forty mice were randomly divided into six groups: (1) vehicle control (n = 7); (2) CCl4 model (n = 7); (3) CCl4 + LIN (20 mg/kg) (n = 7); (4) CCl4 + LIN (40 mg/kg) (n = 7); (5) LIN (40 mg/kg) (n = 7); and (6) CCl4 + silymarin (SIL) (200 mg/kg) (n = 5). LIN and SIL were dissolved in 0.5% CMC-Na solution. Mice were administered LIN or SIL (intragastric administration, i.g.) once per day and CCl4 (intraperitoneal injection, i.p.; mixed 1:3 in olive oil, 2 mL/kg) twice per week for 4 weeks. Mice in the vehicle control group received olive oil (i.p. twice a week, 4 weeks) and 0.5% CMC-Na (i.g. every day, 4 weeks). After treatment, the mice were sacrificed, and plasma and liver tissues were collected and further analysed.
Serum was collected from blood samples after centrifugation at 860 × g for 15 min. Serum ALT (Nanjing Jiancheng Bioengineering Institute, C010-2-1) and AST (Nanjing Jiancheng Bioengineering Institute, C009-2-1) activities were measured using kits, according to the manufacturer’s instructions. Liver hydroxyproline content was determined using the alkaline hydrolysis method, as described in the kits. Serum levels of laminin (LN) were measured using ELISA kits, according to the manufacturer’s instructions (Shanghai YANJIN Biological Technology Co., LTD, F12019).
Total RNA was extracted from liver tissues and LX-2 cells using the TRIzol reagent. cDNA was synthesised using a PrimeScript RT Master Mix kit. Real-time PCR was performed using SYBR Green premix according to the manufacturer’s instructions. Relative expression of target genes was normalised to actin, analysed by the delta-delta-CT method and given as a ratio compared with the vehicle control. Primer sequences used in this study are listed in Supplementary Material.
A sample of the liver was fixed in 10% phosphate-buffered saline (PBS)-formalin solution and embedded in paraffin. Samples were sectioned (5 μm) and stained with haematoxylin-eosin (H&E) for histological observation of liver injury and stained with Masson’s trichrome and Sirius red to observe collagen deposition in the liver.

[4] = LIN 20 and 40 mg/kg i.g. once per day, 4 weeks, p < 0.05
[5] = LIN 20 and 40 mg/kg, dose-dependent

Q: For `C/C1=C\CCC2=C[C@@H](OC2=O)c2c(C)coc2C1` [LIN, linderalactone], which ALT/AST [1] is on record?
A: The ALT/AST was “no obvious alteration”.

Q: What about the “pathological changes in mouse liver tissue” value [1] of the same compound?
A: The value was “no obvious alteration”.

Q: And the BLI response value ([2]; 200 μM LIN)?
A: Its BLI response value is “lower than 0.2”.

Q: What about the “effect of K366A/Q510A mutation on binding affinity between LIN and SHP2-PTP” value ([2]; BLI) of the same compound?
A: Its value is “significantly eliminated”.

Q: And the “hepatic Col1a1 mRNA level” value ([3]; LIN 20 mg/kg)?
A: Its value is “significantly reversed”.

Q: What about the “hepatic Col3a1 mRNA level” value ([3]; LIN 20 mg/kg) of the same compound?
A: The value was “significantly reversed”.

Q: What about the “collagen deposition (Masson's trichrome, Sirius red)” value ([3]; LIN 40 mg/kg) of the same compound?
A: Its value is “mild collagen deposition in the liver without bridging fibrosis”.

Q: And the “serum ALT level” value [3, 4]?
A: The value was “significantly reduced”.

Q: And the “serum AST level” value [3, 4]?
A: The value was “significantly reduced”.

Q: And the liver hydroxyproline level [3, 5]?
A: Its liver hydroxyproline level is “decreased”.

Q: And the serum laminin level [3, 5]?
A: The serum laminin level was “decreased”.

Q: What about the “CCl4-induced liver damage (H&E: immune cell infiltration, swelling, necrosis of hepatocytes)” value ([3]; LIN treatment) of the same compound?
A: The value was “ameliorated”.

Q: And the “extent of collagen deposition (Masson's trichrome, Sirius red)” value ([3]; LIN, dose-dependent)?
A: Its value is “ameliorated”.
